Test results reported in patent US12427183B2, “Methods of treating cancer, infectious disease, and autoimmune disease using chemokines” (New York Society for the Relief of the Ruptured and …, priority 2016, dated 2025).

Assays:
[1] = tested on: pDCs of HDs; assay: TLR gene expression in purified pDCs from HDs cultured with cytokines or chemokines (qPCR); format: cell-based, human; conditions: 24 hours; for induction of TLR8 expression on pDCs of HDs: purified pDCs from HDs, IFN-α and IFN-γ 10 ng/ml, IL-12 100 ng/ml, IL-6 5 ng/ml, IL-10 10 ng/ml, TNF 1 ng/ml, TGF-β 10 ng/ml
Method: (§1) PBMCs were prepared using Ficoll-Paque density gradient from fresh blood under internal Institutional Review Board-approved protocols. pDCs were isolated as previously described (Guiducci et al. 2008) using either using negative depletion (Miltenyi Biotech) or following cell sorting using a BD IFNLUX cell sorter. As part of the gating strategy, neutrophils were excluded by FSC/SSC and cells positive for CD14 (CD3 and CD19 as well) were first excluded in order to prevent the contamination by TLR8 positive cells and then positively gated on HLA-DR, CD123 and BDCA4 to purify the pDCs. All BDCA4+ cells also express BDCA2 (results not shown). As a result, pure pDCs were obtained and no markers for neutrophils (CD66) or myeloid cells were found by PCR. B cells were FACS sorted as CD19+ and monocytes as CD14+ cells. PBMCs were depleted of pDCs using BDCA4 beads from Miltenyi. pDCs were cultured at 10,000-30,000 cells per well in a 96-round bottom plate and incubated at 37° C., 5% CO2 and 95% humidity. After 24 hours of culture, the supernatant was collected for ELISA or Mutiplex cytokine assays. In some culture conditions, cells were cultured with the PI3Kδ inhibitor, CAL-101 (Selleck chemicals) for 24 hours. The RNA-based TLR8 agonist, ORN8-L previously described (Guidacci et al. 2013) was synthetized by Chemgenes Corporation. For the TLR8 activation assay, pDCs were incubated in complete media alone, 200 μg/ml ORN8-L in complete media or 200 μg/ml ORN8-L+ 10 μg/ml CXCL4 (R&D systems).
PCR reactions were performed as described previously with 10 ng of cDNA (Barrat et al. 2005). In brief, RNA was extracted from cells using the Qiagen RNeasy Mini Kit. Quantity of RNA was measured by Nanodrop and high-capacity cDNA Reverse Transcription kit was used to generate 20-50 ng cDNA. Gene expression levels were calculated based on relative threshold cycle (Ct) values. This was done using the formula Relative Ct=100×1.8 (HSK-GENE), where HSK is the mean CT of duplicate housekeeping gene runs (we used Ubiquitin), GENE is the mean CT of duplicate runs of the gene of interest, and 100 is arbitrarily chosen as a factor to bring all values above 0.
In particular, CXCL4 or IP-10 (two CXCR3B agonists) (10 μg/ml each) had no impact on TLR8 nor TLR7 and TLR9 expression levels in pDCs (FIG. 2C).

[2] = tested on: PBMCs and pDC-depleted PBMCs; assay: IFN-α production in PBMCs and pDC-depleted PBMCs cultured with CpG and chemokines (ELISA); format: cell-based, human; conditions: CpG 0.25 μM + chemokine 10 μg/ml
Method: PBMCs were prepared using Ficoll-Paque density gradient (GE Healthcare) as previously described (Guiducci et al., 2008).
pDCs were isolated from PBMCs by positive selection using BDCA4-MicroBead Kit as previously described (Guiducci et al., 2008). pDC-depleted PBMC were prepared by removing BDCA4-positive cells from PBMC using microbeads.
(§2) 5×10^5 PBMCs or pDC-depleted PBMCs were cultured in 96 wells plate and stimulated with 0.25 μM CpG DNA with or without 10 μg/ml CXCL4, CXCL10, CXCL12 or CCL5. Freshly isolated pDCs were resuspended at 5×10^4 cells/100 μl RPMI 1640 medium (Gibco) and stimulated with the 0.25 μM CpG with/without 10 μg/ml indicated chemokines. The supernatant was harvested after 18 h and IFN-α was measured by ELISA.
As shown above, CXCL4 can increase IFN-α production by TLR9-activated pDCs. Thus it was tested whether other chemokines may impact TLR9 signaling in pDCs. Purified pDCs were left unstimulated (Unstim.) or cultured with CpG (0.25 μM) alone or with the indicated chemokines at 10 μg/ml. IFN-α secretion was quantified by ELISA. Strikingly, it was observed that a set of chemokines, including CXCL4, CXL10, CXCL12 and CCL5, were able to superinduce TLR9-induced response by pDCs (FIG. 18A), while they had no effect when used alone (results not shown). […] This also raised questions as to the specificity and mechanism for this effect. First, as other DNA sensors have been described to induce IFN-α in immune cells (Barrat et al., 2016), it was tested to see if these chemokines altered the specificity of the CpGs for TLR9 and if the IFN-α response was restricted to pDCs. Total PBMCs or PBMCs where pDCs were depleted (PBMC-ΔpDCs) were incubated with CpGs and either CXCL4, CXCL10, CXCL12 or CCL5 and IFN-α production was quantified by ELISA.

[3] = tested on: TLR9-mediated activation of human B cells; assay: TLR9-mediated activation of human B cells (CpG with or without chemokines); format: cell-based; conditions: chemokine 10 μg/ml; for activation of B cells via TLR9 as shown by the production of IL-6: CpG 0.15 μM, ELISA
Method: as §1
IL-6, TNF, and IL-10 gene levels were measured at 6 hours post culture using PCR. The secretion of cytokines/chemokines in the supernatants was quantified using Luminex. CD83, CD80, CD86 and CD69 expression was measured by flow cytometry at 24 hour post culture.
Human B cells were purified and cultured for 6 hours or 24 hours either with medium only, with CpG-C (at 0.15 μM) alone or with a combination of CpG-C and CXCL4 (at 10 μg/ml). IL-6 gene levels was measured at 6 hour post culture by PCR and CD83, CD80, CD86 and CD69 expression was measured by flow cytometry at 24 hour post culture.
Purified B cells from HDs were cultured in media alone (control), with either a CpG TLR9 agonist (0.15 μM) or with CpG and either CXCL4, CXCL10, CXCL9, CXCL4, CXCL7 or CXCL12 (all at 10 μg/ml). IL-6 was quantified in the supernatants by ELISA.
Purified B cells from HDs were cultured in media alone (control), with either a CpG TLR9 agonist (0.25 μM) or with CpG and CXCL4 or CXCL10 (10 μg/ml) alone or in the presence of the CXCR3 inhibitor AMG487 at 0, 0.1, 1 or 10 μM for 6 hours or 24 hours. IL-6 was quantified by ELISA at 24 hours and IL-6 and TNF gene expression levels were quantified by q-PCR at 6 hours and CD83, CD80, CD86 and CD69 expression was measured by flow cytometry at 24 hours post culture.

[4] = tested on: TLR9-mediated activation of pDCs; assay: TLR9-mediated activation of purified pDCs (CpG with or without chemokines), IFN-α ELISA; format: cell-based, human; conditions: for IFNα production from TLR9 in pDCs from HDs / TLR9-induced response (IFN-α secretion) by pDCs: CpG 0.25 μM; for IFNα production from TLR9 in pDCs from HDs: chemokine 10 μg/ml (Example 9); for TLR9-induced response (IFN-α secretion) by pDCs: chemokine 10 μg/ml (Example 17); for dependence of IFN-α superinduction on chemokine receptors: with AMG487 100 nM, AMD3100 10 μg/ml, anti-CXCR7 11G8 10 μg/ml, J113863 1.5 μM or Vicriviroc 0.1 μM
[5] = tested on: purified pDCs from HDs or SSc patients; assay: IFN production by purified pDCs cultured with chemokine alone; format: cell-based, human; conditions: chemokine 10 μg/ml without CpG, results not shown
Method: as §1
Supernatant from pDCs 24 hour culture was used for quantification of secreted chemokines and cytokines and measured with the use of an enzyme-linked immunosorbent assay (ELISA) or Luminex multiplex-beads immunoassay. CXCL4 ELISA (Ray Biotech) and IFNα, IP-10, IL-6, TNF Luminex assay (Millipore) was performed according to the manufacturer's protocol. Due to the variability in the number of cells obtained from the different patients and so we could compare the values across donors, all results were normalized to 10,000 cells. Of note, for all donors, pDCs were plated between 10,000-30,000 cells.
When purified pDCs from HDs or SSc patients were cultured with CXCL4 alone ([…]), there was no effect on IFN production.
as §2

## IFN-α
[1]
  induction of TLR8 expression on pDCs of HDs: none of these molecules could induce TLR8

## IL-6: cytokine added to pDC culture at 5 ng/ml
[1]
  induction of TLR8 expression on pDCs of HDs: none of these molecules could induce TLR8

## CXCL12: stromal cell-derived factor-1, small chemokine belonging to the CXC chemokine family
[2]
  IFN-α production in absence of the pDCs (PBMC-ΔpDCs versus total PBMCs): dramatic decrease
[3]
  activation of B cells via TLR9 as shown by the production of IL-6: inhibited
[4]
  IFNα production from TLR9 in pDCs from HDs: potentiated
  TLR9-induced response (IFN-α secretion) by pDCs: superinduce
  dependence of IFN-α superinduction on chemokine receptors: independent of their chemokine receptors
[5]
  IFN-α secretion by pDCs, chemokine used alone: no effect

## CXCL10: small chemokine belonging to the CXC chemokine family and a ligand for the receptor CXCR3
[1]; 10 μg/ml each, pDCs from HDs
  TLR8, TLR7 and TLR9 expression levels in pDCs: no impact
[2]
  IFN-α production in absence of the pDCs (PBMC-ΔpDCs versus total PBMCs): dramatic decrease
[3]; CXCR3 inhibitor AMG487 0.1, 1 or 10 μM, CpG 0.25 μM, 6 or 24 hours
  effect of inhibition of CXCR3 on the chemokine's inhibition of TLR9 in B cells: no effect
[3]
  activation of B cells via TLR9 as shown by the production of IL-6: inhibited
[4]
  IFNα production from TLR9 in pDCs from HDs: potentiated
  TLR9-induced response (IFN-α secretion) by pDCs: superinduce
  dependence of IFN-α superinduction on chemokine receptors: independent of their chemokine receptors
[5]
  IFN-α secretion by pDCs, chemokine used alone: no effect

## CCL5: small chemokine belonging to the CC chemokine family
[2]
  IFN-α production in absence of the pDCs (PBMC-ΔpDCs versus total PBMCs): dramatic decrease
[4]
  TLR9-induced response (IFN-α secretion) by pDCs: superinduce
  dependence of IFN-α superinduction on chemokine receptors: independent of their chemokine receptors
[5]
  IFN-α secretion by pDCs, chemokine used alone: no effect

## heparin [reference compound]
[4]; heparin 1 U/ml, CpG-activated pDCs
  superinduction of IFN-α by all four chemokines (CXCL4, CXCL10, CXCL12, CCL5): reduced

## TGF-β
[1]
  induction of TLR8 expression on pDCs of HDs: none of these molecules could induce TLR8

B1: IFN-γ: cytokine added to pDC culture at 10 ng/ml (protein, UniProt P01579 24-161, looked up)
Interferon gamma: QDPYVKEAENLKKYFNAGHSDVADNGTLFLGILKNWKEESDRKIMQSQIVSFYFKLFKNFKDDQSIQKSVETIKEDMNVKFFNSNKKKRDDFEKLTNYSVTDLNVQRKAIHELIQVMAELSPAAKTGKRKRSQMLFRG
[1]
  induction of TLR8 expression on pDCs of HDs: none of these molecules could induce TLR8

B2: IL-12: cytokine added to pDC culture at 100 ng/ml (protein, UniProt P29459 23-219; P29460 23-328, looked up)
Interleukin-12 subunit alpha: RNLPVATPDPGMFPCLHHSQNLLRAVSNMLQKARQTLEFYPCTSEEIDHEDITKDKTSTVEACLPLELTKNESCLNSRETSFITNGSCLASRKTSFMMALCLSSIYEDLKMYQVEFKTMNAKLLMDPKRQIFLDQNMLAVIDELMQALNFNSETVPQKSSLEEPDFYKTKIKLCILLHAFRIRAVTIDRVMSYLNAS
Interleukin-12 subunit beta: IWELKKDVYVVELDWYPDAPGEMVVLTCDTPEEDGITWTLDQSSEVLGSGKTLTIQVKEFGDAGQYTCHKGGEVLSHSLLLLHKKEDGIWSTDILKDQKEPKNKTFLRCEAKNYSGRFTCWWLTTISTDLTFSVKSSRGSSDPQGVTCGAATLSAERVRGDNKEYEYSVECQEDSACPAAEESLPIEVMVDAVHKLKYENYTSSFFIRDIIKPDPPKNLQLKPLKNSRQVEVSWEYPDTWSTPHSYFSLTFCVQVQGKSKREKKDRVFTDKTSATVICRKNASISVRAQDRYYSSSWSEWASVPCS
[1]
  induction of TLR8 expression on pDCs of HDs: none of these molecules could induce TLR8

B3: IL-10: cytokine added to pDC culture at 10 ng/ml (protein, UniProt P22301 19-178, looked up)
Interleukin-10: SPGQGTQSENSCTHFPGNLPNMLRDLRDAFSRVKTFFQMKDQLDNLLLKESLLEDFKGYLGCQALSEMIQFYLEEVMPQAENQDPDIKAHVNSLGENLKTLRLRLRRCHRFLPCENKSKAVEQVKNAFNKLQEKGIYKAMSEFDIFINYIEAYMTMKIRN
[1]
  induction of TLR8 expression on pDCs of HDs: none of these molecules could induce TLR8

B4: CXCL9: belongs to the CXC chemokine family, also known as MIG (protein, UniProt Q07325 23-125, looked up)
C-X-C motif chemokine 9: TPVVRKGRCSCISTNQGTIHLQSLKDLKQFAPSPSCEKIEIIATLKNGVQTCLNPDSADVKELIKKWEKQVSQKKKQKNGKKHQKKKVLKVRKSQRSRQKKTT
[3]
  activation of B cells via TLR9 as shown by the production of IL-6: inhibited
